From US4450162A, “Pyrimidine derivatives and a pharmaceutical composition containing them” (Sankyo Company, Limited, priority 1981, dated 1984)
Counter-ions that a name gives are not always drawn.

Experiments:
[1] = tested on: reserpine-induced ptosis; assay: Test for anti-reserpine activity (inhibition of reserpine-induced ptosis); assay type: in vivo, male mice of the ddy strain; details: Mus musculus, po, read-out: Reserpine inhibition (percentage inhibition of reserpine-induced ptosis); for inhibition in vivo at 50 mg/kg: 50 mg/kg orally, reserpine 2 mg/kg s.c., sum of observations at 90, 120 and 180 min, groups of three mice
Experimental: 1 Test for anti-reserpine activity
The test animals used were male mice of the ddy strain, each weighing 23-25 g. Each compound was tested on a group of three such mice. Each test compound was employed in the form of a solution or suspension in a physiological saline solution containing 0.3% w/v carboxymethylcellulose. The test employed was a partial modification of the method of Rubin et al. [J. Pharmacol. Exptl.
At each observation, each mouse was assigned from 0 to 3 points corresponding to the degree of ptosis, as follows:
0 points: eyes completely open;
1 point: eyes about one third closed;
2 points: eyes about two thirds closed;
3 points: eyes completely closed.
For each mouse, the number of points from all three observations were added together and the percentage inhibition of reserpine-induced ptosis was calculated from the following formula: [formula] in which:
Po =total number of points from three observations of an animal to which reserpine alone was administered; and
Pt =total number of points from three observations of an animal to which reserpine and the test compound were administered.

[2] = Acute toxicity test; assay type: in vivo, male mice of the ddy strain; details: for Mortality (deaths/animals tested): 7 days observation
Experimental: The test animals used were male mice of the ddy strain, each weighing from 21 to 25 g. To each animal was administered orally a single dose of the test compound in the amount shown in Table 2; the animals were then placed under observation for 7 days after administration. The results are reported in Table 2 as "Mortality", where the numerator indicates the number of deaths in the observation period and the denominator indicates the number of animals tested with the particular test compound at the particular dose.

[3] = tested on: effects of d-amphetamine; assay: Potentiation of d-Amphetamine effects; assay type: in vivo, male rats of the Wistar strain; details: 10 mg/kg orally, 60 min before d-amphetamine sulphate 2.5 mg/kg s.c.; observations 30-240 min; groups of 4 rats
Experimental: 2. Potentiation of d-Amphetamine effects
The test animals used in this experiment were male rats of the Wistar strain, each weighing from 250 to 300 g. The rats were employed in groups of 4 animals each, for each test. The test compound was employed in the form of a solution or suspension in physiological saline containing 0.3% w/v carboxymethylcellulose.
Each rat was placed in an observation cage and then given orally the solution or suspension of the test compound in an amount of 10 mg of test compound per kilogram body weight; 60 minutes later, 2.5 mg/kg of d-amphetamine sulphate were injected subcutaneously. The rats were observed 30 minutes, 60 minutes, 90 minutes, 120 minutes, 150 minutes, 180 minutes and 240 minutes after the injection of the d-amphetamine sulphate. At each observation, each animal was assigned from 0 to 5 points according to its mobility, as follows:
1 point: slight moving around;
3 points: sniffing appears;
4 points: licking appears;
5 points: biting appears.
The percentage potentiation of the effects of d-amphetamine was then calculated from the following formula: [formula] where:
P'o =total number of points from all observations of an animal to which d-amphetamine alone was administered; and
P't =total number of points from all seven observations of an animal to which both the test compound and d-amphetamine were administered.

[4] = Antidepressant activity (general statement); details: in vivo

| SMILES | inhibition in vivo at 50 mg/kg [1] [%] | d-Amphetamine potentiation (percentage potentiation of the effects of d-amphetamine) [3] [%] | further results |
| --- | --- | --- | --- |
| Cc1ncnc(Nc2ccc(Br)cc2)c1C [Compound No. 28, 4-(4-Bromoanilino)-5,6-dimethylpyrimidine] | 61.1 | 79 | Mortality (deaths/animals tested) ([2]; single oral dose 1000 mg/kg): 0/5 |
| Cc1ncnc(Nc2ccccc2)c1Br [4-anilino-5-bromo-6-methylpyrimidine] | – | – | antidepressant activity [4]: no antidepressant activity |
| CN(C)CCCN1c2ccccc2CCc2ccccc21 [Imipramine hydrochloride, reference compound] | 72.2 | 77 | Mortality (deaths/animals tested) ([2]; single oral dose 500 mg/kg): 3/5; Mortality: deaths on day 3 ([2]; single oral dose 500 mg/kg, on day 3): 1; Mortality: deaths within 1 hour ([2]; single oral dose 500 mg/kg, within 1 hour): 2 |
| N#Cc1ccc(Nc2ncnc3c2CCC3)cc1 [Compound No. 14, 4-(4-Cyanoanilino)-6,7-dihydro-5H-cyclopenta[d]pyrimidine] | – | – | inhibition in vivo at 25 mg/kg [1]: 85% |
| Cc1ncnc(Nc2ccc(Cl)cc2)c1C [Compound No. 25, 4-(4-Chloroanilino)-5,6-dimethylpyrimidine] | 61.1 | 75 | – |
| c1ccc(Nc2ncnc3c2CCC3)cc1 [Compound No. 2, 4-Anilino-6,7-dihydro-5H-cyclopenta[d]pyrimidine hydrochloride] | 68.7 | – | – |
| Clc1ccc(Nc2ncnc3c2CCC3)cc1 [Compound No. 3, 4-(4-Chloroanilino)-6,7-dihydro-5H-cyclopenta[d]pyrimidine] | 82.3 | – | – |
| Cc1ncnc(Nc2ccc(C(F)(F)F)cc2)c1C [Compound No. 38, 5,6-Dimethyl-4-(4-trifluoromethylanilino)pyrimidine] | 68.8 | – | – |
| FC(F)(F)c1ccc(Nc2ncnc3c2CCC3)cc1 [compound 11, 4-(4-Trifluoromethylanilino)-6,7-dihydro-5H-cyclopenta[d]pyrimidine] | 62.5 | – | – |
| Cc1ncnc(Nc2ccc(C(C)C)cc2)c1C [Compound No. 47, 4-(4-Isopropylanilino)-5,6-dimethylpyrimidine] | 70.6 | – | – |
| CCCCc1c(C)ncnc1Nc1ccc(Br)cc1 [compound 69, 4-(4-Bromoanilino)-5-n-butyl-6-methylpyrimidine] | – | 94 | – |
| Brc1ccc(Nc2ncnc3c2CCC3)cc1 [Compound No. 5, 4-(4-Bromoanilino)-6,7-dihydro-5H-cyclopenta[d]pyrimidine] | 75.6 | – | Mortality (deaths/animals tested) ([2]; single oral dose 500 mg/kg): 0/5; Mortality (deaths/animals tested) ([2]; single oral dose 1000 mg/kg): 0/5 |
| CCc1ccc(Nc2ncnc3c2CCC3)cc1 [compound 9, 4-(4-Ethylanilino)-6,7-dihydro-5H-cyclopenta[d]pyrimidine] | 82.3 | – | – |
| Cc1ncnc(Nc2ccc(I)cc2)c1C [compound 32, 4-(4-Iodoanilino)-5,6-dimethylpyrimidine] | 43.8 | 76 | – |
